Tests used:
[1] = target: human orexin-2 receptor (hOX2R) (Homo sapiens (Human), UniProt O43614); assay: FLIPR Ca2+ Flux Assay, hOX2R; format: cell-based; details: CHO cells expressing hOX2R; agonist 70 pM Ala-6,12 orexin-A
Experimental: In a typical experiment the OX1 and OX2 receptor antagonistic activity of the compounds of the present invention was determined in accordance with the following experimental method. For intracellular calcium measurements, Chinese hamster ovary (CHO) cells expressing the rat orexin-1 receptor or the human orexin-2 receptor, are grown in Iscove's modified DMEM containing 2 mM L-glutamine, […], 1% hypoxanthine-thymidine supplement, 100 U/ml penicillin, 100 μg/ml streptomycin and 10% heat-inactivated fetal calf serum (FCS). The cells are seeded at 20,000 cells/well into Becton-Dickinson black 384-well clear bottom sterile plates coated with poly-D-lysine. All reagents were from GIBCO-Invitrogen Corp. The seeded plates are incubated overnight at 37° C. and 5% CO2. Ala-6,12 human orexin-A as the agonist is prepared as a 1 mM stock solution in 1% bovine serum albumin (BSA) and diluted in assay buffer (HBSS containing 20 mM HEPES, 0.1% BSA and 2.5 mM probenecid, pH7.4) for use in the assay at a final concentration of 70 pM. Test compounds are prepared as 10 mM stock solution in DMSO, then diluted in 384-well plates, first in DMSO, then assay buffer. On the day of the assay, cells are washed 3 times with 100 μl assay buffer and then incubated for 60 min (37° C., 5% CO2) in 60 μl assay buffer containing 1 μM Fluo-4AM ester, 0.02% pluronic acid, and 1% BSA. The dye loading solution is then aspirated and cells are washed 3 times with 100 μl assay buffer. 30 μl of that same buffer is left in each well. Within the Fluorescent Imaging Plate Reader (FLIPR, Molecular Devices), test compounds are added to the plate in a volume of 25 μl, incubated for 5 min and finally 25 μl of agonist is added. Fluorescence is measured for each well at 1 second intervals for 5 minutes and the height of each fluorescence peak is compared to the height of the fluorescence peak induced by 70 pM Ala-6,12 orexin-A with buffer in place of antagonist. […] Alternatively, compound potency can be assessed by a radioligand binding assay (described in Bergman et. al. Bioorg. Med. Chem. Lett. 2008, 18, 1425-1430) in which the inhibition constant (Ki) is determined in membranes prepared from CHO cells expressing either the OX1 or OX2 receptor. The intrinsic orexin receptor antagonist activity of a compound which may be used in the present invention may be determined by these assays.
(§1) Chinese hamster ovary (CHO) cells expressing the human orexin-1 receptor (hOX1R) or the human orexin-2 receptor (hOX2R) were grown in Iscove's modified DMEM containing 2 mM L-glutamine, […], 1% hypoxanthine-thymidine supplement, 100 U/ml penicillin, 100 μg/ml streptomycin and 10% heat-inactivated fetal calf serum (FCS). The cells were seeded at 20,000 cells/well into Becton-Dickinson black 384-well clear bottom sterile plates coated with poly-D-lysine. All reagents were from GIBCO-Invitrogen Corp. The seeded plates were incubated overnight at 37° C. and 5% CO2. Ala-6,12 human orexin-A, used as the agonist, was prepared as a 1 mM stock solution in 1% bovine serum albumin (BSA) and diluted in assay buffer (HBSS containing 20 mM HEPES, 0.1% BSA and 2.5 mM probenecid, pH7.4) for use in the assay at a final concentration of 70 pM. Test compounds were prepared as 10 mM stock solution in DMSO, then diluted in 384-well plates, first in DMSO, then assay buffer.
On the day of the assay, cells were washed 3× with 100 μl assay buffer and then incubated for 60 minutes (37° C., 5% CO2) in 60 μl assay buffer containing 1 μM Fluo-4AM ester, 0.02% pluronic acid, and 1% BSA. The dye loading solution was then aspirated and cells were washed 3× with 100 μl assay buffer.

[2] = target: human orexin-1 receptor (hOX1R) (Homo sapiens, UniProt O43613); assay: FLIPR Ca2+ Flux Assay, hOX1R; format: cell-based; details: CHO cells expressing hOX1R; agonist 70 pM Ala-6,12 orexin-A
Experimental: as §1
On the day of the assay, cells were washed 3× with 100 μl assay buffer and then incubated for 60 minutes (37° C., 5% CO2) in 60 μl assay buffer containing 1 μM Fluo-4AM ester, 0.02% pluronic acid, and 1% BSA. The dye loading solution was then aspirated and cells were washed 3× with 100 μl assay buffer. 30 μl of that same buffer was left in each well. Within the Fluorescent Imaging Plate Reader (FLIPR, Molecular Devices), test compounds were added to the plate in a volume of 25 μl, incubated for 5 minutes, and then 25 μl of agonist was added. Fluorescence was measured for each well at 1 second intervals for 5 minutes, and the height of each fluorescence peak was compared to the height of the fluorescence peak induced by 70 pM of Ala-6,12 orexin-A with buffer in place of test compound.

Sequence of human orexin-2 receptor (hOX2R) (O43614 whole entry): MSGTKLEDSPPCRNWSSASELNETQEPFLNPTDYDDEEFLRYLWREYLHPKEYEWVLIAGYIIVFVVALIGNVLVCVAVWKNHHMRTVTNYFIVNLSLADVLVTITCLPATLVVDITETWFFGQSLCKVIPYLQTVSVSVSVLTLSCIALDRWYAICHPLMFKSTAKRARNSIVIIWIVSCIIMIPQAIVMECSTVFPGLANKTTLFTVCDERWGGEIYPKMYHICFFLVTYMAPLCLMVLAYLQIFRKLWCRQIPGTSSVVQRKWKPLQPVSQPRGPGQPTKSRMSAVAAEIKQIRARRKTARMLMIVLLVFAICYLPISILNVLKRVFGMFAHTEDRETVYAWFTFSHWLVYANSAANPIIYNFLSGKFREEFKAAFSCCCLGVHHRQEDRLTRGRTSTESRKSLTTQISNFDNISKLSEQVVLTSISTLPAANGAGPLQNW

| Compound | IC50 [1] | IC50 [2] |
| --- | --- | --- |
| C[C@@H]1CC[C@@H](Oc2cc(C(C)(C)O)ccc2F)CN1C(=O)c1ccccc1-n1nccn1 [Example 20, 2-(4-Fluoro-3-{[(3R,6R)-6-methyl-1-{[2-(2H-1,2,3-triazol-2-yl)phenyl]carbonyl}piperidin-3-yl]oxy}phenyl)propan-2-ol] | 0.354 µM | 10 µM |
| C[C@@H]1CC[C@@H](Oc2ccc3c(c2)C(C)(O)CC3)CN1C(=O)c1ccccc1-n1nccn1 (stereo partly drawn) [Example 33, 1-Methyl-6-{[(3R,6R)-6-methyl-1-{[2-(2H-1,2,3-triazol-2-yl)phenyl]carbonyl}piperidin-3-yl]oxy}-2,3-dihydro-1H-inden-1-ol] | 0.023 µM | 0.742 µM |
| C[C@@H]1CC[C@@H](Oc2nccc(C(C)(C)O)c2F)CN1C(=O)c1ccccc1-n1nccn1 [Example 21, 2-(3-Fluoro-2-{[(3R,6R)-6-methyl-1-{[2-(2H-1,2,3-triazol-2-yl)phenyl]carbonyl}piperidin-3-yl]oxy}pyridin-4-yl)propan-2-ol] | 0.006 µM | 0.259 µM |
| CCC(C)(O)c1cccc(O[C@@H]2CC[C@@H](C)N(C(=O)c3ccccc3-n3nccn3)C2)c1 (stereo partly drawn) [Example 18, 2-(3-{[(3R,6R)-6-Methyl-1-{[2-(2H-1,2,3-triazol-2-yl)phenyl]carbonyl}piperidin-3-yl]oxy}phenyl)butan-2-ol] | 0.024 µM | 0.827 µM |
| (1S)-1-Methyl-6-{[(3R,6R)-6-methyl-1-{[2-(2H-1,2,3-triazol-2-yl)phenyl]carbonyl}piperidin-3-yl]oxy}-2,3-dihydro-1H-inden-1-ol [Example 35] | 0.164 µM | 3.35 µM |
| C[C@@H]1CC[C@@H](Oc2cccc(C(C)(O)C3CCCC3)c2)CN1C(=O)c1ccccc1-n1nccn1 (stereo partly drawn) [Example 16, 1-Cyclopentyl-1-(3-{[(3R,6R)-6-methyl-1-{[2-(2H-1,2,3-triazol-2-yl)phenyl]carbonyl}-piperidin-3-yl]oxy}phenyl)ethanol] | 0.086 µM | 3.42 µM |

— US9725434B2, “Hydroxy-substituted orexin receptor antagonists” (MERCK SHARP & DOHME CORP., priority 2013, dated 2017)
